Laboratory results as given in patent publication US10272080B2, “Selective dopamine D4 receptor agonists for treatment of working memory deficits” (priority 2013, dated 2019).

What was measured:
[1] = system: PNE mice; experiment: Y-maze spontaneous alternation assay in prenatal nicotine exposure (PNE) mice; assay type: in vivo, mice (C57/B6); conditions: for changes in spontaneous alternations in PNE mice (Y-maze): PNE mice only, FIG. 6, N=8-9; for spontaneous alternations in the PNE mice, comparison of methylphenidate and PD 168077: FIG. 10, n=9-10 per group
Method: (§1) A prenatal nicotine exposure (PNE) mouse model to screen for drugs that alleviate the symptoms of ADHD and associated working memory deficits is developed.^13,14 In this model, adult female C57/B6 mice are exposed to nicotine (100 μg/ml nicotine and 2% saccharin in drinking water, pH 7.2) starting 4-6 weeks prior to mating with drug-naïve male mice, and throughout their pregnancies. Two groups of age- and bodyweight-matched female mice are used as controls. In the saccharin-only (SAC) control group, mice were exposed to saccharin alone (2% saccharin in drinking water, pH 7.2), and mice in the plain drinking water (WATER) control group were exposed to drinking water without any additives. On the day the mice littered, the litter size was standardized to contain 6-8 offspring (4 males and 4 females, whenever possible). Within 48 hours of birth offspring from the PNE, SAC and WATER groups were removed from their biological mothers and cross fostered to drug-naïve nursing dams. At the age of 90 days (postnatal day 90; P90), male offspring from each group were used in experimental analyses.
(§2) On postnatal day 90 (P90), a Y-maze assay is used to examine changes in spontaneous alternation in the PNE mouse model.
In additional experiments, saline, selective D1 receptor agonist (A-77636), selective D2/D3 receptor agonist (LY 171555), and selective D4 receptor agonist (PD 168077) are administered to the PNE and SAC mice followed with the assay of spontaneous alternations using the Y-maze.
Methylphenidate, the classic stimulant treatment for ADHD, is examined for its efficacy in alleviating working memory deficits in the PNE mice. It is disclosed that methylphenidate increases extracellular dopamine in the frontal cortex of mice.^1,14 In the example of the present invention, saline or a therapeutic equivalent dose of methylphenidate^18 is administered to PNE and SAC mice. The PNE and SAC mice administered saline or a therapeutic equivalent dose of methylphenidate are assayed for spontaneous alternations in the Y-maze.

[2] = system: drug naïve mice; experiment: Y-maze spontaneous alternation in drug naïve (WATER group) mice with pharmacological blockade of the D4 receptor; assay type: in vivo, mice (C57/B6); conditions: drug naïve mice given D4 antagonist L 745087, Panel B of FIG. 7
Method: as §1, §2

[3] = system: SAC mice; experiment: Y-maze spontaneous alternation assay in saccharin-only (SAC) control mice; assay type: in vivo, mice (C57/B6)
Method: as §1
On postnatal day 90 (P90), a Y-maze assay is used to examine changes in spontaneous alternation in the PNE mouse model. […]

[4] = system: dopamine D2/D3 receptors; experiment: GTPγS binding assay, D2/D3 receptor activity in frontal cortical membrane preparations after methylphenidate treatment; assay type: biochemical; conditions: PNE or SAC mice after methylphenidate treatment, FIG. 9
Method: D2/D3 and D4 receptor activities are also analyzed using GTPγS binding assays with frontal cortical membrane preparations from PNE and SAC mice following the methylphenidate treatment. […] Mean±SEM, n=10-11 per group.

[5] = system: dopamine D4 receptor; experiment: GTPγS binding assay, D4 receptor activity in frontal cortical membrane preparations after methylphenidate treatment; assay type: biochemical, mice; conditions: FIG. 9
Method: Following the Y maze assay, GTPγS receptor binding assay is performed to examine the dopamine receptor signaling in mice of different groups and therefore to determine which dopamine subtypes are activated. GTPγS binding assay is used to measure agonist-induced dopamine receptor-G-protein coupling in membrane preparations obtained from specific brain regions such as the frontal cortex.^17 This assay uses pharmacological compounds that selectively activate each receptor subtype. Since compounds selective for each of the 5 dopamine receptor subtypes are not available yet, testing is limited to assaying activities of the D2/D3 and D4 receptor only. In this assay, a D2 receptor agonist LY 171555 and a selective D4R agonist PD 168077, both in 30 μM, are used to exam the activities of D2/D3 receptor and D4 receptor, respectively.
D2/D3 and D4 receptor activities are also analyzed using GTPγS binding assays with frontal cortical membrane preparations from PNE and SAC mice following the methylphenidate treatment. Increases are found in D4 agonist-induced G-protein coupling in the frontal cortices of PNE mice following the methylphenidate treatment, compared to saline treatment (Panel A, FIG. 9). […]

NC[C@@H]1O[C@H](C23CC4CC(CC(C4)C2)C3)Cc2c1ccc(O)c2O [A-77636]
changes in spontaneous alternations in PNE mice (Y-maze) [1]: neither the D1 nor the D2/D3 agonist produces significant changes

CCCN1CCC[C@@H]2Cc3n[nH]cc3C[C@H]21 [LY 171555]
changes in spontaneous alternations in PNE mice (Y-maze) [1]: neither the D1 nor the D2/D3 agonist produces significant changes

Cc1cccc(C(=O)NCN2CCN(c3ccccc3C#N)CC2)c1 [PD 168077, N-([4-(2-cyanophenyl)piperazin-1-yl]methyl)-3-methylbenzamide]
spontaneous alternations in the PNE mice, comparison of methylphenidate and PD 168077 [1]: greater than that of MPH | working memory in prenatal nicotine exposure mouse models ([1]; PD 168077 about 10 mg per kilogram body weight): shows improvement in working memory | working memory in prenatal nicotine exposure mouse models ([1]; PD 168077 about 20 mg per kilogram body weight): shows greater improvement in working memory | difference in spontaneous alternations between the PNE group and the SAC group after administration ([1]; after PD 168077 administration, FIG. 5): no statistically significant difference | spontaneous alternations in the PNE mice (Y-maze) ([1]; dose from about 10 mg/kg to about 20 mg/kg, FIG. 5): produces improvement in spontaneous alternations in the PNE mice in a dose dependent manner | effect on L 745087 antagonist-induced decrease in spontaneous alternations [2]: abolishes the antagonist-induced decreases in spontaneous alternations in a dose-dependent manner | change in spontaneous alternations in the SAC group (Y-maze) ([3]; 20 mg/kg, FIG. 5): the change is not significant

COC(=O)C(c1ccccc1)C1CCCCN1 (stereo not shown) [methylphenidate]
spontaneous alternations in the PNE mice, comparison of methylphenidate and PD 168077 [1]: increase spontaneous alternations | spontaneous alternation in PNE mice (Y-maze), Mean±SEM ([1]; single oral 0.75 mg/kg about 30 minutes before the Y maze assay, saline about 48.0±2.2, FIG. 8): about 57.1±1.8 | difference in spontaneous alternations between methylphenidate-exposed PNE mice and saline-exposed SAC control mice ([1]; single oral 0.75 mg/kg, FIG. 8): no longer a significant difference | D2/D3 receptor coupling to G-protein in the frontal cortices [4]: does not produce significant alterations | activity of D4 receptor in the prefrontal cortex (D4 agonist-induced G-protein coupling), Mean±SEM ([5]; MPH treated PNE mice, saline treated about 92.0±3.5): about 131.6±11.6 | D4 receptor activity in the SAC group ([5]; SAC mice receiving methylphenidate treatment): no significant change | spontaneous alternations in the SAC control group (Y-maze) ([3]; single oral 0.75 mg/kg, FIG. 8): no significant effect
